Usually EC50 stands for the concentration that produces a half-maximal response. Low values mean an effect from little substance, high ones a need for much substance. The term Emax denotes the size of the effect at its maximum, as opposed to the concentration needed.

Non-standard residues stand in square brackets, D forms with d. Residues, ends and D or L forms follow the SMILES beside them. hArg = N=C(N)NCCCC[C@H](N)C(=O)O; Aib = CC(C)(N)C(=O)O

This is an account of results in patent US7521528B2, “Conformationally constrained parathyroid hormone (PTH) analogs with lactam bridges” (The General Hospital Corporation, priority 2003, dated 2009).

The assay deals with T1, P1R-DelNt (Homo sapiens, UniProt Q03431).
T1 construct: expressed in transfected cells
T1 sequence (Q03431 with tags, fused parts or gaps limits assumed): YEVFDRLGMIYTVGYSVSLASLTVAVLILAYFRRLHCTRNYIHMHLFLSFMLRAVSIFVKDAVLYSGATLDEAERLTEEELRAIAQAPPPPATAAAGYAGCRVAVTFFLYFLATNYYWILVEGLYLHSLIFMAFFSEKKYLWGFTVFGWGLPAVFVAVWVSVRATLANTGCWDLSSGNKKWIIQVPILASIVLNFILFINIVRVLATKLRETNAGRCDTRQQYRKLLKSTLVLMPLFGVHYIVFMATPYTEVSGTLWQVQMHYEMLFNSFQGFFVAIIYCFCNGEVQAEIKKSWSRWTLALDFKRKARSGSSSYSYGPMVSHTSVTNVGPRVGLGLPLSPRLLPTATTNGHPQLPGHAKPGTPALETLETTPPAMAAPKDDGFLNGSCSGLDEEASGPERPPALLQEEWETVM
The assay is described as follows: cAMP stimulation in LdelNt-2 cells. Format: cell-based. Conditions: for EC50: cAMP accumulation; for Emax: percent of maximum response of PTH(1-14). How it is done:
cAMP Stimulation. Stimulation of cells with peptide analogs was performed in 24-well plates. Cells were rinsed with 0.5 mL of binding buffer (50 mM Tris-HCl, 100 mM NaCl, 5 mM KCl, 2 mM CaCl2, 5% heat-inactivated horse serum, 0.5% fetal bovine serum, adjusted to pH 7.5 with HCl) and treated with 200 μL of cAMP assay buffer (Delbecco's modified Eagle's medium containing 2 mM 3-isobutyl-1-methylxanthine, 1 mg/mL bovine serum albumin, 35 mM Hepes-NaOH, pH 7.4) and 100 μL of binding buffer containing varying amounts of peptide analog (final volume=300 μL). The medium was removed after incubation for 30 to 60 minutes at room temperature, and the cells were frozen on dry ice, lysed with 0.5 mL 50 mM HCl, and refrozen ([…]). The cAMP content of the diluted lysate was determined by radioimmunoassay. The EC50 response values were calculated using nonlinear regression (see below).
Data Calculation. Calculations were performed using Microsoft® Excel. Nonlinear regression analyses of binding and cAMP dose-response data were performed using the four-parameter equation: yp=Min+[(Max−Min)/(1+(IC50/x)^slope)]. The Excel Solver function was utilized for parameter optimization, as described previously (Carter, P. H., et al., Endocrinology 140: 4972-4981 (1999); Bowen, W. P., and Jerman, J. C., Trends in Pharmacol. Sci. 16: 413-417 (1995)). Differences between paired data sets were statistically evaluated using a one-tailed Student's t-test, assuming unequal variances for the two sets.
The two-domain hypothesis of the PTH-P1R interaction mechanism predicts that the effects of the substitutions at positions 6 and 10 observed with the above PTH(1-11) analogs involve interactions (direct or indirect) that occur within the juxtamembrane region of the receptor. To test this hypothesis, P1R-DelNt was utilized. P1R-DeNt is a P1R construct that is deleted for most of the N domain yet which retains nearly full capacity to be expressed on the cell surface and to stimulate cAMP formation in response to N-terminal PTH analogs, and an LLC-PK1-derived cell line was herein established, LdelNt-2, which stably expresses P1R-DelNt.

With `CC[C@H](C)[C@H](NC(=O)[C@H](CCC(=O)O)NC(=O)C(C)(C)NC(=O)[C@@H](NC(=O)C(C)(C)N)C(C)C)C(=O)N[C@@H](CCC(N)=O)C(=O)N[C@@H](CC(C)C)C(=O)N[C@@H](CCSC)C(=O)N[C@@H](Cc1c[nH]cn1)C(=O)N[C@@H](CCC(N)=O)C(=O)N[C@@H](CCCCNC(=N)N)C(=O)N[C@@H](C)C(=O)N[C@@H](CCCCN)C(=O)N[C@@H](Cc1c[nH]c2ccccc12)C(N)=O` [[Aib]PTH(1-14), AibValAibGluIleGlnLeuMetHisGlnHarAlaLysTrp-amide] (H-[Aib]V[Aib]EIQLMHQ[hArg]AKW-NH2), the “fold increase in cAMP formation/accumulation” value stood at 50 fold and a half-maximal effect (EC50) was put at 6.6 ± 1.1 nM.
Consider `CC[C@H](C)[C@H](NC(=O)[C@H](CCC(=O)O)NC(=O)C(C)(C)NC(=O)[C@@H](NC(=O)C(C)(C)N)C(C)C)C(=O)N[C@@H](C)C(=O)N[C@@H](CC(C)C)C(=O)N[C@@H](CCSC)C(=O)N[C@@H](Cc1c[nH]cn1)C(=O)N[C@@H](C)C(=O)N[C@@H](CCCCNC(=N)N)C(=O)N[C@@H](C)C(=O)N[C@@H](CCCCN)C(=O)N[C@@H](Cc1c[nH]c2ccccc12)C(N)=O` [[Aib^1,3, Ala^6,10]PTH(1-14)] (H-[Aib]V[Aib]EIALMHA[hArg]AKW-NH2), for which the “potency relative to [Aib^1,3, Ala^6]PTH(1-14)” value is reported as “six-fold higher”; the concentration for a half-maximal effect (EC50) was found to be 24 ± 7 nM; the maximal response (Emax) was 100 ± 3%.
Regarding `CC[C@H](C)[C@H](NC(=O)[C@H](CCC(=O)O)NC(=O)C(C)(C)NC(=O)[C@@H](NC(=O)C(C)(C)N)C(C)C)C(=O)N[C@@H](C)C(=O)N[C@@H](CC(C)C)C(=O)N[C@@H](CCSC)C(=O)N[C@@H](Cc1c[nH]cn1)C(=O)N[C@@H](CCC(N)=O)C(=O)N[C@@H](CCCCNC(=N)N)C(=O)N[C@@H](C)C(=O)N[C@@H](CCCCN)C(=O)N[C@@H](Cc1c[nH]c2ccccc12)C(N)=O` [[Aib^1,3, Ala^6]PTH(1-14)] (H-[Aib]V[Aib]EIALMHQ[hArg]AKW-NH2), the “potency weaker than parent [Aib]PTH(1-14)” value is 22 fold and the maximal response (Emax) was 101 ± 4%.
On to `CC[C@H](C)[C@H](NC(=O)[C@H](CCC(=O)O)NC(=O)C(C)(C)NC(=O)[C@@H](NC(=O)C(C)(C)N)C(C)C)C(=O)N[C@@H](CCC(N)=O)C(=O)N[C@@H](CC(C)C)C(=O)N[C@@H](CCSC)C(=O)N[C@@H](Cc1c[nH]cn1)C(=O)N[C@@H](C)C(=O)N[C@@H](CCCCNC(=N)N)C(=O)N[C@@H](C)C(=O)N[C@@H](CCCCN)C(=O)N[C@@H](Cc1c[nH]c2ccccc12)C(N)=O` [[Aib^1,3, Ala^10]PTH(1-14)] (H-[Aib]V[Aib]EIQLMHA[hArg]AKW-NH2), for which the “potency weaker than parent [Aib]PTH(1-14)” value came to 12 fold, the concentration giving a half-maximal response (EC50) worked out at 81 ± 65 nM and the Emax is 104 ± 7%.
